This note sets out measurements from patent US6642215B2 (Leo Pharma A/S, priority 2001, dated 2003).

One test has as its system NF-κB. Nature of the test: NF-κB-dependent luciferase reporter assay in LPS-stimulated THP-1 cells. The format is cell-based, human. The note with it: 1 μM compound, then 1 μg/ml LPS 5 h. From the text: Luciferase plasmids: The NF-κB-luciferase reporter plasmid (pBIIX) was a gift from Marja Jäättelä and Ida S. Mathiasen, the Danish Cancer Society. It was constructed by inserting a synthetic fragment with two copies of the sequence (5′-ACAGAGGGGACTTTCCGAGAG-3′ separated by four nucleotides (5′-ATCT-3′) in front of a mouse fos promoter in a plasmid pfLUC (a pBluescript-based plasmid with a firefly luciferase encoding sequence) (K. Saksela and D. Baltimore, Mol. Cell Biol. 13, 1993, pp. 3698-3705) The NF-κB binding site from the mouse Igκ light chain is underlined (M. Grilli et al., Int. Rev, Cytol. 143, 1993, pp. 1-62). A Renilla luciferase plasmid with a thymidine kinase promoter (pRL-TK vector) was used as a control for transfection efficiency and was obtained from Promega Inc., Madison, Wis. Plasmid DNA was prepared and purified using the QIAGEN EndoToxin-free Maxiprep-500 kit (QIAGEN, Hilden, Germany). […]
The cell lysate was assayed for luciferase activity using the Dual luciferase kit as described by the manufacturer (Promega). […] Firefly luciferase activity was corrected for differences in transfection efficiency by normalizing it to the measured Renilla luciferase activity.

A further test relates to PC-3 cells. Nature of the test: DNA synthesis (tritiated thymidine incorporation) in PC-3 cells. The note with it: Homo sapiens, 144 h incubation, mean ± SD of two to four experiments. It is filed as cell-based. As for the experimental part: (§1) DNA synthesis: NYH SCLC, HT-1080, Colo-320, PC-3 and H460 cells (7.5×10^3 cells/ml) were seeded in tissue culture vessels and the test compound were added 2 h after plating. Following an incubation for 144 h tritiated thymidine (5 CI/mmol, Amersham Pharmacia Biotech) was added to the culture at the concentration of 1 μCi/ml, and the cells were incubated for additional 4 h. The incorporated thymidine was measured with a β-counter. Each compound concentration was tested in triplicate.

The next test relates to HT 1080 Xenografts. Nature of the test: HT 1080 xenografts in nude mice, tumour growth. It is filed as in vivo, NMRI nu/nu mice. To be noted: HT-1080 xenograft, 50 mg/kg, oral gavage. As for the experimental part:
(§2) All of the animal experiments were conducted according to the guidelines and ethical standards of the Danish Committee for Animal Experiments. Female NMRI nu/nu mice 6 weeks of age were purchased from M&B (Ry, Denmark). The mice were allowed an acclimatisation period of 1-3 weeks before start of the experiments. The nude mice were housed in Scantainers under semi-sterile conditions and all handling of mice was performed in a laminar flow bench.
HT 1080 Xenografts. NMRI nu/nu mice were injected with 2×10^6 cells in 0.2 ml media s.c. in each flank and tumour size was measured as described for the NYH model. Compound A was given for fourteen days by oral gavage from day 4 when the tumour size was 22-24 mm^2. Each treatment group consisted of 10 mice.
(§3) Statistical Methods In the animal models, tumour sizes were expressed by the mean of the trends in each treatment group. The trend is the linear increment or tumour size, where tumour size is the square root of the (mean) area of the tumour(s). Comparison with controls was expressed as T/C % and calculated as follows:
(§4) A=(overall mean tumour size at baseline+mean trend of treatment*intended days of treatment) […]
(§5) Overall mean tumour size at baseline=pooling all treatments this is the mean of all baseline values. For each mouse the baseline value is calculated as the square root of the (mean) area of the tumour(s). […]

The test system of the next test is HT-1080 cells. Nature of the test: DNA synthesis (tritiated thymidine incorporation) in HT-1080 cells. It is filed as cell-based. The note with it: Homo sapiens, 144 h incubation, mean ± SD of two to four experiments. As for the experimental part:
as §1

The next test has as its system Colo-320 DM. Description: Colo-320 DM xenografts in nude mice, tumour growth. The format is in vivo, NMRI nu/nu mice. The note with it: Colo-320 xenograft, 50 mg/kg, oral gavage. Here is the method: as §2
Colo-320 DM, NMRI nu/nu mice were injected with 5×10^6 cells in 0.2 ml media s.c. in each flank and tumour size was measured as mentioned above. Compound A was given for three weeks by oral gavage from day 8 when the tumour size was about 20 mm^2. Each treatment group consisted of 10 mice.
as §3, §4, §5

The subject of another test is NYH SCLC cells. Nature of the test: DNA synthesis (tritiated thymidine incorporation) in NYH SCLC cells. The format is cell-based. Here is the method: as §1

Like-named read-outs stand apart in the source and are kept apart here.

With `N#CNC(=Nc1ccncc1)NCCCCCCOc1ccc(Cl)cc1` [compound A, N-(6-(4-chlorophenoxy)hexyl)-N′-cyano-N″-(4-pyridyl)guanidine], the “NF-κB-dependent luciferase activity, change” value in the test with NF-κB (preincubation 2 h) is “small decrease”. Further, the “NF-κB-dependent induction of luciferase expression blocked” value in the test on NF-κB (preincubation 24 h, relative to DMSO-treated cells) is around 80%. Further, the IC50 in the test on PC-3 cells was determined as 5.6 ± 0.3 nM; in the test with HT-1080 cells, 5.6 ± 0.3 nM; with NYH SCLC cells (NYH SCLC cells, 144 h incubation, mean ± SD of two to four experiments, read-out: DNA synthesis (IC50 nM)), 0.64 ± 0.06 nM; with NYH SCLC cells (incorporation of tritiated thymidine in NYH SCLC cells, read-out: NYH proliferation in vitro (IC50 nM)), 0.64 ± 0.06 nM. For the same molecule, the results for the “In vivo xenografts in nude mice T/C (%)” value in the test on HT 1080 Xenografts and in the test on Colo-320 DM were −77% and −50%, respectively.
